Reference: BindingDB's records for doi:10.7270/Q2TX3CTT (Broad Institute, 2010)
Counter-ions that a name gives are not always drawn.

Target: Glycogen synthase kinase-3 beta (Homo sapiens, UniProt P49841)
Assay: GSK3beta kinase inhibitor potency, dose response, biochemical, luminescence, cell-free homogeneous, retest (AID 434954)

Glycogen synthase kinase-3 beta, sequence (P49841 whole entry): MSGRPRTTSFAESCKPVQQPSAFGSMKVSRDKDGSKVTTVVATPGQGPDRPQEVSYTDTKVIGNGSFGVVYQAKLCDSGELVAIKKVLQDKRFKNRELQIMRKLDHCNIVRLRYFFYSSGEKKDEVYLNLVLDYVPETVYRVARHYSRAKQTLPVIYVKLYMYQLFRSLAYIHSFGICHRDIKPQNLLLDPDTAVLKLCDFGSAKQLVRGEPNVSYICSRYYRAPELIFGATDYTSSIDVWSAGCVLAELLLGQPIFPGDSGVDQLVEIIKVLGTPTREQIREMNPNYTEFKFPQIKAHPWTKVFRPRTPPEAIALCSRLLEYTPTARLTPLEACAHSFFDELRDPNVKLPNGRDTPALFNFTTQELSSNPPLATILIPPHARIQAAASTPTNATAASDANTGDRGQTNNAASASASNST

Cc1nn(CC(=O)NCCCN2CCCCC2)c(=O)c2cc(-c3ccccc3)nn12 [SMR000631197]
EC50: > 300 µM

COc1ccc(S(=O)(=O)CC(=O)c2cc3cccc(C)c3oc2=O)cc1 [SMR000634140]
EC50: > 300 µM

O=C1Nc2cc(C(=O)NCCN3CCCCCC3)ccc2S/C1=C\c1ccccc1 [SMR000635247]
EC50: > 300 µM

O=C1Nc2cc(C(=O)N3CCC(N4CCCCC4)CC3)ccc2S/C1=C\c1ccccc1 [SMR000635251]
EC50: 16.9 µM

CC(C)Cc1ccccc1O [SMR000639202]
EC50: > 300 µM

O=Cc1cc(CCC(=O)O)ccc1O [SMR000639316]
EC50: > 300 µM

C[C@H](C(O)c1ccccc1)N(C)C(=O)CN (some centres not stated) [SMR000639412]
EC50: > 300 µM

CN1CCc2c(sc(NC(=O)Cc3ccc(F)cc3)c2C(N)=O)C1 [SMR000641824]
EC50: > 300 µM

COc1ccc(CC(=O)N2C[C@H]3C[C@@H](C2)c2cccc(=O)n2C3)cc1 [SMR000646314]
EC50: > 300 µM

Cc1cccc(COc2ccc(C=NNC(=O)c3nnn(-c4nonc4N)c3CN3CCCCC3)cc2)c1 [SMR000646486]
EC50: > 300 µM

Nc1nonc1-n1nnc(C(=O)NN=Cc2ccc(OCc3ccccc3F)cc2)c1CN1CCCCC1 [SMR000646487]
EC50: > 300 µM

Nc1nonc1-n1nnc(C(=O)NN=Cc2ccc(Br)cc2)c1CN1CCOCC1 [SMR000646504]
EC50: > 300 µM

CC(C)c1ccc(C=NNC(=O)c2nnn(-c3nonc3N)c2CN2CCOCC2)cc1 [SMR000646507]
EC50: > 300 µM

Cc1ccc(SCc2c(C(=O)NN=Cc3ccoc3)nnn2-c2nonc2N)cc1 [SMR000647588]
EC50: > 300 µM

COc1ccc(S(=O)(=O)Nc2c(C(=O)O)[nH]c3ccc(OC)cc23)c(OC)c1 [SMR000650153]
EC50: 1.15 µM

COc1ccc2cc(C(=O)C3CCCN(C(=O)c4sc(C)nc4C)C3)ccc2c1 (configuration not stated) [SMR000653741]
EC50: > 300 µM

COc1ccc(N(C(=O)c2ccncc2)S(=O)(=O)c2cccc([N+](=O)[O-])c2)cc1 [SMR000668685]
EC50: > 300 µM

O=C(CCS(=O)(=O)Cc1ccccc1)Nc1ncc([N+](=O)[O-])s1 [SMR000669229]
EC50: 57.1 µM

CCn1c(SCC(=O)Nc2ccc(Br)cn2)nnc1C1CC1 [SMR000671057]
EC50: 75 µM

C=CCN1C(=O)NC(=O)/C(=C/c2ccc(OCC(=O)Nc3ccc(C)cc3)cc2)C1=O [SMR000673044]
EC50: > 300 µM

O=C(O)c1ccc2c3n(nc2c1)-c1ccc(Cl)cc1CO3 [SMR000673552]
EC50: 55.5 µM

Cc1ccc(NC(=O)NCCCN2CCCC2=O)cc1C [SMR000677961]
EC50: > 300 µM

COc1ccc(NC(=O)NC2CCCc3ccccc32)cc1 (configuration not stated) [SMR000678136]
EC50: > 300 µM

CCC(N=C(S)NC1CCCCC1)c1ccccc1 (configuration not stated) [SMR000678367]
EC50: > 300 µM

COc1cccc(NC(=O)NNS(=O)(=O)c2ccc(OC)cc2OC)c1 [SMR000679286]
EC50: > 300 µM

CCc1c(C(=O)Nc2ccccc2C(N)=O)csc1C [SMR000679541]
EC50: > 300 µM

CCOc1ccc(/C=C2\CCCc3c2nc2ccccc2c3C(=O)O)cc1OC [SMR000688807]
EC50: > 300 µM

Cc1ccnc(NC(=O)C2CC(=O)N(c3ccc4c(c3)OCCO4)C2)c1 (configuration not stated) [SMR000709078]
EC50: 25.6 µM

Cc1cc(C)n2nc(C(=O)OCC(=O)NC(=O)c3ccccc3)nc2n1 [SMR000716574]
EC50: > 300 µM

CCN1CCN(Cc2ccc(NC(=O)c3ccc(C)c(/C=C/c4cnc(Nc5cc(N6CCNCC6)nc(C)n5)cn4)c3)cc2C(F)(F)F)CC1 [SMR000718284]
EC50: > 300 µM

O=C(CSc1ncnc2c1cnn2-c1ccc(F)cc1)NCC1CCCO1 (configuration not stated) [SMR000806858]
EC50: > 300 µM

O=C(NCC(c1ccco1)N1CCOCC1)c1cccc(Cl)c1 (configuration not stated) [SMR000808258]
EC50: > 300 µM

O=C(NCC(c1ccco1)N1CCN(c2ccc(F)cc2)CC1)c1cccs1 (configuration not stated) [SMR000808277]
EC50: > 300 µM

Cc1ccccc1NC(=O)CSc1nnc2ccc(-c3ccncc3)nn12 [SMR000808359]
EC50: > 300 µM

CC(=O)N1CCc2c(sc(NC(=O)CS(=O)(=O)c3ccc(F)cc3)c2C(N)=O)C1 [SMR000808580]
EC50: > 300 µM

Cc1ccc2sc(N3CCN(CCNC(=O)c4ccco4)CC3)nc2c1C [SMR000811862]
EC50: > 300 µM

O=C(NCC(c1ccco1)N1CCc2ccccc21)c1cccc([N+](=O)[O-])c1 (configuration not stated) [SMR000811914]
EC50: > 300 µM

COc1ccc(C)cc1S(=O)(=O)Nc1cc2c3c(c1)CCN3C(=O)CC2 [SMR000812053]
EC50: > 300 µM

CNC(=O)c1ccsc1NC(=O)C1CCN(S(=O)(=O)c2ccc(Cl)s2)CC1 [SMR000812824]
EC50: > 300 µM

CCN1C(=O)[C@H]2[C@@H](c3ccc(-c4ccccc4)cc3)N[C@@](CC(C)C)(C(=O)OC)[C@H]2C1=O [SMR000814381]
EC50: > 300 µM

CCCCCCSc1ccc([C@H]2N[C@@](CC(C)C)(C(=O)OC)[C@H]3C(=O)N(C)C(=O)[C@@H]23)cc1 [SMR000814394]
EC50: > 300 µM

CCn1nc(NC(=O)C2CCCO2)c2cc3cccc(C)c3nc21 (configuration not stated) [Tetrahydro-furan-2-carboxylic acid (1-ethyl-8-methyl-1H-pyrazolo[3,4-b]quinolin-3-yl)-amide]
EC50: > 300 µM

O=C(Nc1ncc(Cc2ccccc2Cl)s1)C1CCCO1 (configuration not stated) [Tetrahydro-furan-2-carboxylic acid [5-(2-chloro-benzyl)-thiazol-2-yl]-amide]
EC50: 27.6 µM

CCCn1nc(NC(=O)c2cccs2)c2cc3ccccc3nc21 [Thiophene-2-carboxylic acid (1-propyl-1H-pyrazolo[3,4-b]quinolin-3-yl)-amide]
EC50: > 300 µM

NC(=O)c1ncn([C@@H]2O[C@H](CO)[C@@H](O)[C@H]2O)n1 [Tribavirin]
EC50: > 300 µM

COc1cccc(OC)c1OCCNCC1COc2ccccc2O1 (configuration not stated) [WB-4101 hydrochloride]
EC50: > 300 µM

O=C(C1CCCN(S(=O)(=O)c2ccccc2)C1)N1CCN(c2ncccn2)CC1 (configuration not stated) [[1-(phenylsulfonyl)piperidin-3-yl]-(4-pyrimidin-2-ylpiperazin-1-yl)methanone]
EC50: > 300 µM

Cc1c(NC(=O)C(C)OC(=O)COc2ccccc2)c(=O)n(-c2ccccc2)n1C (configuration not stated) [[1-[(1,5-dimethyl-3-oxidanylidene-2-phenyl-pyrazol-4-yl)amino]-1-oxidanylidene-propan-2-yl] 2-phenoxyethanoate]
EC50: > 300 µM

O=C(c1cccnc1)C1CCCN(Cc2nc(Cc3ccccc3)no2)C1 (configuration not stated) [[1-[[3-(phenylmethyl)-1,2,4-oxadiazol-5-yl]methyl]-3-piperidinyl]-(3-pyridinyl)methanone]
EC50: > 300 µM

OCC1(Cc2ccccc2)CCN(Cc2ccc(-c3ccco3)cc2)CC1 [[1-[[4-(2-furanyl)phenyl]methyl]-4-(phenylmethyl)-4-piperidinyl]methanol]
EC50: > 300 µM

Cc1ccccc1-c1nc(CN2CCC(C(=O)N3CCN(c4ccccn4)CC3)CC2)c(C)o1 [[1-[[5-methyl-2-(2-methylphenyl)-4-oxazolyl]methyl]-4-piperidinyl]-[4-(2-pyridinyl)-1-piperazinyl]methanone]
EC50: > 300 µM

CN=C(NC#N)SCC(=O)c1ccc(Cl)cc1Cl [[2-(2,4-dichlorophenyl)-2-oxidanylidene-ethyl] N-cyano-N'-methyl-carbamimidothioate]
EC50: 3.19 µM

Cc1cnc(C(=O)OCC(=O)N2c3ccccc3CC2C)cn1 (configuration not stated) [[2-(2-methyl-2,3-dihydroindol-1-yl)-2-oxoethyl] 5-methylpyrazine-2-carboxylate]
EC50: > 300 µM

C=CCN=C(NC#N)SCC(=O)c1cccc(OC)c1 [[2-(3-methoxyphenyl)-2-oxidanylidene-ethyl] N-cyano-N'-prop-2-enyl-carbamimidothioate]
EC50: 1.23 µM

CCN(CC)C(=O)COC(=O)c1ccc(O)cc1 [[2-(diethylamino)-2-oxoethyl] 4-hydroxybenzoate]
EC50: > 300 µM

COCCOc1ccc(C(F)(F)F)cc1NC(=O)COC(=O)c1cc[n+]([O-])cc1 [[2-[2-(2-methoxyethoxy)-5-(trifluoromethyl)anilino]-2-oxoethyl] 1-oxidopyridin-1-ium-4-carboxylate]
EC50: > 300 µM

CCC1(CC)NC(=O)N(CC(=O)OCC(=O)Nc2sccc2C#N)C1=O [[2-[(3-cyanothiophen-2-yl)amino]-2-oxoethyl] 2-(4,4-diethyl-2,5-dioxoimidazolidin-1-yl)acetate]
EC50: > 300 µM

CCCCOc1ccc(/C=C/C(=O)OCC(=O)N2CC(=O)Nc3ccccc32)cc1OCC [[2-oxidanylidene-2-(3-oxidanylidene-2,4-dihydroquinoxalin-1-yl)ethyl] (E)-3-(4-butoxy-3-ethoxy-phenyl)prop-2-enoate]
EC50: > 300 µM

COc1ccccc1CNC(=O)OCc1nccnc1C(=O)Nc1ccc(Br)cn1 [[3-[(5-bromopyridin-2-yl)carbamoyl]pyrazin-2-yl]methyl N-[(2-methoxyphenyl)methyl]carbamate]
EC50: > 300 µM

Cc1ccc(N2CCN(C(=O)N3CCOCC3)CC2)c(C)c1 [[4-(2,4-dimethylphenyl)piperazin-1-yl]-morpholin-4-ylmethanone]
EC50: > 300 µM

CCN1CCN(c2c(C(=O)c3ccc(OC)cc3)cnc3ccccc23)CC1 [[4-(4-ethylpiperazin-1-yl)quinolin-3-yl](4-methoxyphenyl)methanone]
EC50: > 300 µM

CCN(CC)Cc1c(O)ccc2occ(C(=O)c3ccc(OC)cc3)c12 [[4-(diethylaminomethyl)-5-oxidanyl-1-benzofuran-3-yl]-(4-methoxyphenyl)methanone]
EC50: > 300 µM

O=C(c1cccs1)c1coc2ccc(O)c(CN3CCOCC3)c12 [[4-(morpholin-4-ylmethyl)-5-oxidanyl-1-benzofuran-3-yl]-thiophen-2-yl-methanone]
EC50: > 300 µM

COc1ccc2occ(C(=O)c3coc4ccc(O)c(CN(C)C)c34)c2c1 [[4-[(dimethylamino)methyl]-5-oxidanyl-1-benzofuran-3-yl]-(5-methoxy-1-benzofuran-3-yl)methanone;hydrochloride]
EC50: 1.99 µM

O=C(c1cccs1)c1coc2ccc(O)c(CN(CCO)CCO)c12 [[4-[[bis(2-hydroxyethyl)amino]methyl]-5-oxidanyl-1-benzofuran-3-yl]-thiophen-2-yl-methanone;hydrochloride]
EC50: > 300 µM

Nc1nc(Nc2ccccc2F)sc1C(=O)c1ccccc1 [[4-amino-2-(2-fluoroanilino)-1,3-thiazol-5-yl]-phenylmethanone]
EC50: 0.622 µM

CCNc1nc(N)c(C(=O)c2ccc(Cl)s2)s1 [[4-amino-2-(ethylamino)-1,3-thiazol-5-yl]-(5-chlorothiophen-2-yl)methanone]
EC50: 0.174 µM
